The term GI50 denotes the concentration giving 50% growth inhibition.

This is an account of results in ChEMBL document CHEMBL1201862, “PubChem BioAssay data set” (2004).

Test systems include HCC 2998; HL-60; HOP-62; HT-29; K562; LOX IMVI; MOLT-4; NCI-H226; NCI-H460; OVCAR-5; OVCAR-8; RPMI-8226; RXF 393; SK-MEL-28; SK-MEL-5; SNB-75; SR; T47D; UACC-257; UACC-62.
Common to all, as to assay: DTP human tumour cell line panel, 48 h

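Cells were grown in 96-well plates and exposed to each compound for 48 hours at five concentrations; endpoints were interpolated linearly between bracketing concentrations, or set to the highest concentration if not reached. At the GI50, growth is halved.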 Active and inactive are the calls of the source. Cut-off read from the data, not from the text of the source: active = GI50 up to about 1.1 µM and inactive = higher. Where only a bound is given, the exact number is not on record here.

For `Cc1nc2nn[nH]n2c(=O)c1CCO`, the GI50 with HCC 2998, with HL-60, with HOP-62, in the assay on HT-29, in the assay with K562 and in the assay with LOX IMVI was > 100 µM (inactive) each time. Also, the GI50 in the assay on MOLT-4, in the assay with NCI-H226, with NCI-H460, with OVCAR-5, in the assay on OVCAR-8 and in the assay with RPMI-8226 was > 100 µM (inactive) throughout. In addition, the GI50 was > 100 µM (inactive) in the assay with RXF 393; > 100 µM (inactive) in the assay with SK-MEL-28; > 100 µM (inactive) in the assay with SK-MEL-5; 26.6 µM (inactive) in the assay on SNB-75; > 100 µM (inactive) in the assay on SR; > 100 µM (inactive) with T47D. In addition, the GI50 in the assay on UACC-257 and in the assay with UACC-62 was > 100 µM (inactive) in each case.
For the compound `N/C(=N\Nc1ccc(Cl)cc1)c1cnccn1`, the GI50 in the assay on HCC 2998 was 22.9 µM (inactive); in the assay on HL-60 it was 3.48 µM (inactive); in the assay with HOP-62, 85.5 µM (inactive); in the assay on HT-29, 32.3 µM (inactive); in the assay with K562, 3.85 µM (inactive); with LOX IMVI it was 84.1 µM (inactive). Also, the GI50 was 39.8 µM (inactive) in the assay with MOLT-4; 48.8 µM (inactive) with NCI-H226; 37.2 µM (inactive) with NCI-H460; > 100 µM (inactive) with OVCAR-5; > 100 µM (inactive) with OVCAR-8; 78.3 µM (inactive) in the assay on RPMI-8226. For the same compound, the GI50 in the assay on RXF 393 was > 100 µM (inactive); in the assay with SK-MEL-28, 73.6 µM (inactive); in the assay with SK-MEL-5, 21.1 µM (inactive); with SNB-75, > 100 µM (inactive); in the assay on SR, 5.71 µM (inactive); in the assay on T47D, 13 µM (inactive). Besides, the GI50 was 28.3 µM (inactive) with UACC-257 and 5.04 µM (inactive) in the assay on UACC-62.
As for `CSC(=Nc1nnc(-c2ccc([N+](=O)[O-])cc2)s1)SC`, the GI50 in the assay on HCC 2998 was > 79.6 µM (inactive); with HL-60, > 100 µM (inactive); in the assay with HOP-62, 20.1 µM (inactive); in the assay on HT-29 it was > 100 µM (inactive); with K562, > 100 µM (inactive); in the assay with LOX IMVI, 31.9 µM (inactive). For the same compound, the GI50 with MOLT-4 is > 100 µM (inactive); in the assay on NCI-H226, 33.7 µM (inactive); in the assay on NCI-H460 it was > 89.1 µM (inactive); in the assay with OVCAR-5 it was > 100 µM (inactive); with OVCAR-8, 34.4 µM (inactive); in the assay on RPMI-8226 it was > 100 µM (inactive). Moreover, the GI50 was 20 µM (inactive) with RXF 393; 77.4 µM (inactive) in the assay with SK-MEL-28; 55.7 µM (inactive) in the assay with SK-MEL-5; 11.9 µM (inactive) in the assay on SNB-75; > 100 µM (inactive) in the assay on SR; 17.8 µM (inactive) in the assay with T47D. Besides, the GI50 with UACC-257 is > 93.1 µM (inactive); in the assay with UACC-62 it was 25.8 µM (inactive).
Turning to `COc1ccc(C(=O)N(Cc2cccnc2)C(=S)N(Cc2cccnc2)C(=O)c2ccc(OC)cc2)cc1`, the GI50 was > 100 µM (inactive) in the assay with HCC 2998; > 100 µM (inactive) with HL-60; 35 µM (inactive) in the assay with HOP-62; > 100 µM (inactive) with HT-29; > 100 µM (inactive) in the assay on K562; > 100 µM (inactive) with LOX IMVI. In addition, the GI50 is > 100 µM (inactive) in the assay on MOLT-4; > 100 µM (inactive) in the assay with NCI-H226; > 100 µM (inactive) in the assay with NCI-H460; > 100 µM (inactive) in the assay with OVCAR-5; 66.8 µM (inactive) with OVCAR-8; > 100 µM (inactive) in the assay on RPMI-8226. In addition, the GI50 is 38.8 µM (inactive) in the assay on RXF 393; > 100 µM (inactive) in the assay with SK-MEL-28; > 100 µM (inactive) in the assay on SK-MEL-5; 17.2 µM (inactive) in the assay on SNB-75; > 100 µM (inactive) in the assay on SR; > 100 µM (inactive) in the assay on T47D. Further, the GI50 in the assay with UACC-257 and in the assay with UACC-62 was > 100 µM (inactive) throughout.
As for `COc1cc(C2C=C(c3ccccc3)Oc3cc4c(cc32)OCO4)cc(OC)c1OC` (stereo not given), the concentration for 50% growth inhibition (GI50) with HCC 2998 is 0.341 µM (active); with HL-60, 0.521 µM (active); in the assay on HOP-62, 0.675 µM (active); in the assay on HT-29, 0.324 µM (active); in the assay on K562, 0.435 µM (active); with LOX IMVI, 0.569 µM (active). Moreover, the GI50 in the assay with MOLT-4 is 0.43 µM (active); with NCI-H226, 0.376 µM (active); in the assay on NCI-H460, 0.436 µM (active); in the assay on OVCAR-5, 0.585 µM (active); in the assay with OVCAR-8, 0.502 µM (active); with RPMI-8226, 0.555 µM (active). The GI50 in the assay on RXF 393 was 0.0843 µM (active); in the assay with SK-MEL-28 it was 0.57 µM (active); in the assay with SK-MEL-5 it was 0.502 µM (active); in the assay with SNB-75, 2.4 µM (inactive); in the assay on SR it was 0.333 µM (active); with T47D it was 2 µM (inactive). The GI50 was 3.33 µM (inactive) in the assay on UACC-257 and 0.446 µM (active) with UACC-62.
As for `COC1(C)Cc2c(c(C)c(O)c3c2C(=O)C=C(Cl)C3=O)O1` (stereo not given), the GI50 was > 100 µM (inactive) in the assay on HCC 2998; 3.48 µM (inactive) in the assay on HL-60; > 100 µM (inactive) with HOP-62; 28.9 µM (inactive) with HT-29; 8.75 µM (inactive) in the assay on K562; 44.8 µM (inactive) in the assay on LOX IMVI. Also, the GI50 was 7.5 µM (inactive) in the assay with MOLT-4; > 100 µM (inactive) in the assay with NCI-H226; > 100 µM (inactive) with NCI-H460; > 100 µM (inactive) in the assay with OVCAR-5; 40.2 µM (inactive) in the assay with OVCAR-8; 14.7 µM (inactive) in the assay with RPMI-8226. Moreover, the GI50 is 16 µM (inactive) in the assay with RXF 393; 39.7 µM (inactive) in the assay on SK-MEL-28; 40.8 µM (inactive) in the assay with SK-MEL-5; > 100 µM (inactive) in the assay on SNB-75; 3.89 µM (inactive) with SR; 13.4 µM (inactive) with T47D. Moreover, the GI50 in the assay with UACC-257 was > 56.5 µM (inactive); in the assay with UACC-62 it was 35.8 µM (inactive).
Regarding `O=c1[nH]c(=O)n(C2CC(O)C(CO)O2)cc1I` (stereo not given), the GI50 with HCC 2998 is > 82.6 µM (inactive); in the assay with HL-60 it was > 81.3 µM (inactive); in the assay with HOP-62 it was > 100 µM (inactive); with HT-29, > 100 µM (inactive); in the assay with K562, > 23.1 µM (inactive); with LOX IMVI, > 87.1 µM (inactive). Moreover, the GI50 is 75.7 µM (inactive) in the assay with MOLT-4; > 100 µM (inactive) in the assay on NCI-H226; > 60.7 µM (inactive) with NCI-H460; > 100 µM (inactive) in the assay with OVCAR-5; > 100 µM (inactive) in the assay with OVCAR-8; > 43.8 µM (inactive) with RPMI-8226. For the same compound, the GI50 in the assay on RXF 393 was > 100 µM (inactive); in the assay on SK-MEL-28 it was > 100 µM (inactive); with SK-MEL-5, > 100 µM (inactive); in the assay with SNB-75, > 100 µM (inactive); with SR, 38.7 µM (inactive); with T47D, > 100 µM (inactive). For the same compound, the GI50 in the assay with UACC-257 and in the assay on UACC-62 was > 100 µM (inactive) each time.
